Source: patent US20260265252A1, “SOLID STATE FORMS OF IMIPRIDONE DERIVATIVE” (CHIMERIX, INC., priority 2024, published 2026)
Counter-ions that a name gives are not always drawn.

Test: ICH-compliant stability study of ONC206-HCl Drug Substance (appearance, XRPD form, HPLC assay, purity/impurities, water content, particle size, microbial)
Assay type: physicochemical
Parameters: key to Each unidentified impurity (NMT 0.5% area) / Appearance (White to off-white solid) / Polymorphic form (XRPD) (Consistent with form 2 reference diffractogram): C = Conforms; A = Absence
Protocol: The purpose of the ICH-compliant stability study was to evaluate the performance to specifications of ONC206-HCl Drug Substance under specified container closure configuration, storage conditions, and intervals.
The study was performed according to ICH Q1A(R2) and QlE Guidance documents. […]
The Container Closure Systems were: • Primary container: LDPE bag, 4×8 inches (Source: Nexus—64378); bag closure PE 180 nm (Source: Entourage), • Secondary container: LDPE bag, 4×8 inches (Source: Nexus—64378); bag closure PE 180 nm (Source: Entourage), • Tertiary container: Heat-sealed foil bag, 15×30 (Source: SERCALIA S.L.—10234), and • Outer container: Plastic drum, 6 L (Source: Curtec, HDPE ref 54021) or Plastic drum, 3.6 L (Source: Curtec).

[1] = 30 ± 2° C./65% ± 5% RH intermediate conditions, 9 months
[2] = 30 ± 2° C./65% ± 5% RH intermediate conditions, 12 months
[3] = 40 ± 2° C./75% ± 5% RH accelerated conditions, 0 months
[4] = 40 ± 2° C./75% ± 5% RH accelerated conditions, 3 months
[5] = 40 ± 2° C./75% ± 5% RH accelerated conditions, 6 months
[6] = at all conditions, over the course of the study

- Particle Size (Malvern) D10 (Report result μm) [1]: 30.5 μm
- Particle Size (Malvern) D50 (Report result μm) [1]: 93.2 μm
- Particle Size (Malvern) D90 (Report result μm) [1]: 197.0 μm
- Polymorphic form (XRPD) (Consistent with form 2 reference diffractogram) [1]: C
- Purity by HPLC (NLT 98.0% area) [1]: 100.0 % area
- Total impurities (NMT 2.0% area) [1]: 0.00 % area
- Water Content by Kf (Report result % w/w) [1]: 9.3 % w/w
- Appearance (White to off-white solid) [2]: C
- Assay by HPLC-UV (Anhydrous & Solvent Free basis) 97.0-103.0% w/w [2]: 100.0 % w/w
- Each unidentified impurity (NMT 0.5% area) [2]: C
- Particle Size (Malvern) D10 (Report result μm) [2]: 29.7 μm
- Particle Size (Malvern) D50 (Report result μm) [2]: 93.7 μm
- Particle Size (Malvern) D90 (Report result μm) [2]: 203.0 μm
- Polymorphic form (XRPD) (Consistent with form 2 reference diffractogram) [2]: C
- Purity by HPLC (NLT 98.0% area) [2]: 100.0 % area
- Total impurities (NMT 2.0% area) [2]: 0.00 % area
- Water Content by Kf (Report result % w/w) [2]: 9.3 % w/w
- period over which stability is confirmed (40° C. (Table 40), 75% RH accelerated conditions): 6 months
- Appearance (White to off-white solid) [3]: C
- Assay by HPLC-UV (Anhydrous & Solvent Free basis) 97.0-103.0% w/w [3]: 101.6 % w/w
- Each unidentified impurity (NMT 0.5% area) [3]: C
- Particle Size (Malvern) D10 (Report result μm) [3]: 28.2 μm
- Particle Size (Malvern) D50 (Report result μm) [3]: 91.4 μm
- Particle Size (Malvern) D90 (Report result μm) [3]: 201.3 μm
- Polymorphic form (XRPD) (Consistent with form 2 reference diffractogram) [3]: C
- Purity by HPLC (NLT 98.0% area) [3]: 100.0 % area
- Total impurities (NMT 2.0% area) [3]: 0.00 % area
- Water Content by Kf (Report result % w/w) [3]: 9.3 % w/w
- Appearance (White to off-white solid) [4]: C
- Assay by HPLC-UV (Anhydrous & Solvent Free basis) 97.0-103.0% w/w [4]: 100.1 % w/w
- Each unidentified impurity (NMT 0.5% area) [4]: C
- Particle Size (Malvern) D10 (Report result μm) [4]: 28.1 μm
- Particle Size (Malvern) D50 (Report result μm) [4]: 91.5 μm
- Particle Size (Malvern) D90 (Report result μm) [4]: 199.0 μm
- Polymorphic form (XRPD) (Consistent with form 2 reference diffractogram) [4]: C
- Purity by HPLC (NLT 98.0% area) [4]: 100.0 % area
- Total impurities (NMT 2.0% area) [4]: 0.00 % area
- Water Content by Kf (Report result % w/w) [4]: 9.5 % w/w
- Each unidentified impurity (Report RRT and % area for peaks ≥0.10% area) (40 ± 2° C./75% ± 5% RH accelerated conditions, 3 months, peak RRT 1.30): 0.10% aire
- Appearance (White to off-white solid) [5]: C
- Assay by HPLC-UV (Anhydrous & Solvent Free basis) 97.0-103.0% w/w [5]: 100.2 % w/w
- Each unidentified impurity (NMT 0.5% area) [5]: C
- Particle Size (Malvern) D10 (Report result μm) [5]: 29.2 μm
- Particle Size (Malvern) D50 (Report result μm) [5]: 92.6 μm
- Particle Size (Malvern) D90 (Report result μm) [5]: 201.0 μm
- Polymorphic form (XRPD) (Consistent with form 2 reference diffractogram) [5]: C
- Purity by HPLC (NLT 98.0% area) [5]: 100.0 % area
- Total impurities (NMT 2.0% area) [5]: 0.00 % area
- Water Content by Kf (Report result % w/w) [5]: 9.5 % w/w
- Particle Size (D10, D50 and D90) [6]: no significant evolution
- Polymorphic form (XRPD) [6]: no significant change
- Purity and total impurities [6]: no significant evolution
- Water Content [6]: no significant evolution
- appearance [6]: no significant change
- Assay HPLC (over the course of the study): no significant evolution
- microbial results (over the course of the study): in specifications
- period over which stability is confirmed (−20° C. (Table 41)): 12 months
- Appearance (White to off-white solid) (−20° C., 0 months): C
- Assay by HPLC-UV (Anhydrous & Solvent Free basis) 97.0-103.0% w/w (−20° C., 0 months): 101.6 % w/w
- Each unidentified impurity (NMT 0.5% area) (−20° C., 0 months): C
- Particle Size (Malvern) D50 (Report result μm) (−20° C., 0 months): 91.4 μm
- Particle Size (Malvern) D90 (Report result μm) (−20° C., 0 months): 201.3 μm
- Particle Size (Malvern) Dl0 (Report result μm) (−20° C., 0 months): 28.2 μm
- Polymorphic form (XRPD) (Consistent with form 2 reference diffractogram) (−20° C., 0 months): C
- Purity by HPLC (NLT 98.0% area) (−20° C., 0 months): 100.0 % area
- Total impurities (NMT 2.0% area) (−20° C., 0 months): 0.00 % area
- Water Content by Kf (Report result % w/w) (−20° C., 0 months): 9.3 % w/w
- Appearance (White to off-white solid) (−20° C., 1 months): C
- Assay by HPLC-UV (Anhydrous & Solvent Free basis) 97.0-103.0% w/w (−20° C., 1 months): 101.5 % w/w
- Each unidentified impurity (NMT 0.5% area) (−20° C., 1 months): C
- Particle Size (Malvern) D50 (Report result μm) (−20° C., 1 months): 89.5 μm
- Particle Size (Malvern) D90 (Report result μm) (−20° C., 1 months): 193.0 μm
- Particle Size (Malvern) Dl0 (Report result μm) (−20° C., 1 months): 27.5 μm
- Polymorphic form (XRPD) (Consistent with form 2 reference diffractogram) (−20° C., 1 months): C
- Purity by HPLC (NLT 98.0% area) (−20° C., 1 months): 100.0 % area
- Total impurities (NMT 2.0% area) (−20° C., 1 months): 0.00 % area
- Water Content by Kf (Report result % w/w) (−20° C., 1 months): 9.3 % w/w
- Appearance (White to off-white solid) (−20° C., 2 months): C
- Assay by HPLC-UV (Anhydrous & Solvent Free basis) 97.0-103.0% w/w (−20° C., 2 months): 100.2 % w/w
- Each unidentified impurity (NMT 0.5% area) (−20° C., 2 months): C
- Particle Size (Malvern) D50 (Report result μm) (−20° C., 2 months): 90.6 μm
- Particle Size (Malvern) D90 (Report result μm) (−20° C., 2 months): 189.0 μm
- Particle Size (Malvern) Dl0 (Report result μm) (−20° C., 2 months): 28.8 μm
- Polymorphic form (XRPD) (Consistent with form 2 reference diffractogram) (−20° C., 2 months): C
- Purity by HPLC (NLT 98.0% area) (−20° C., 2 months): 100.0 % area
- Total impurities (NMT 2.0% area) (−20° C., 2 months): 0.00 % area
- Water Content by Kf (Report result % w/w) (−20° C., 2 months): 9.4 % w/w
- Appearance (White to off-white solid) (−20° C., 3 months): C
- Assay by HPLC-UV (Anhydrous & Solvent Free basis) 97.0-103.0% w/w (−20° C., 3 months): 100.0 % w/w
- Each unidentified impurity (NMT 0.5% area) (−20° C., 3 months): C
- Particle Size (Malvern) D50 (Report result μm) (−20° C., 3 months): 89.4 μm
- Particle Size (Malvern) D90 (Report result μm) (−20° C., 3 months): 195.0 μm
- Particle Size (Malvern) Dl0 (Report result μm) (−20° C., 3 months): 27.2 μm
- Polymorphic form (XRPD) (Consistent with form 2 reference diffractogram) (−20° C., 3 months): C
- Purity by HPLC (NLT 98.0% area) (−20° C., 3 months): 100.0 % area
- Total impurities (NMT 2.0% area) (−20° C., 3 months): 0.00 % area
- Water Content by Kf (Report result % w/w) (−20° C., 3 months): 9.5 % w/w
- Appearance (White to off-white solid) (−20° C., 6 months): C
- Assay by HPLC-UV (Anhydrous & Solvent Free basis) 97.0-103.0% w/w (−20° C., 6 months): 100.1 % w/w
- Each unidentified impurity (NMT 0.5% area) (−20° C., 6 months): C
- Particle Size (Malvern) D50 (Report result μm) (−20° C., 6 months): 89.0 μm
- Particle Size (Malvern) D90 (Report result μm) (−20° C., 6 months): 192.0 μm
- Particle Size (Malvern) Dl0 (Report result μm) (−20° C., 6 months): 27.5 μm
- Polymorphic form (XRPD) (Consistent with form 2 reference diffractogram) (−20° C., 6 months): C
- Purity by HPLC (NLT 98.0% area) (−20° C., 6 months): 100.0 % area
- Total impurities (NMT 2.0% area) (−20° C., 6 months): 0.00 % area
- Water Content by Kf (Report result % w/w) (−20° C., 6 months): 9.3 % w/w
- Appearance (White to off-white solid) (−20° C., 9 months): C
- Assay by HPLC-UV (Anhydrous & Solvent Free basis) 97.0-103.0% w/w (−20° C., 9 months): 100.4 % w/w
- Each unidentified impurity (NMT 0.5% area) (−20° C., 9 months): C
- Particle Size (Malvern) D50 (Report result μm) (−20° C., 9 months): 91.8 μm
- Particle Size (Malvern) D90 (Report result μm) (−20° C., 9 months): 196.0 μm
- Particle Size (Malvern) Dl0 (Report result μm) (−20° C., 9 months): 29.5 μm
- Polymorphic form (XRPD) (Consistent with form 2 reference diffractogram) (−20° C., 9 months): C
- Purity by HPLC (NLT 98.0% area) (−20° C., 9 months): 100.0 % area
- Total impurities (NMT 2.0% area) (−20° C., 9 months): 0.00 % area
- Water Content by Kf (Report result % w/w) (−20° C., 9 months): 9.3 % w/w
- Appearance (White to off-white solid) (−20° C., 12 months): C
- Assay by HPLC-UV (Anhydrous & Solvent Free basis) 97.0-103.0% w/w (−20° C., 12 months): 99.9 % w/w
- Each unidentified impurity (NMT 0.5% area) (−20° C., 12 months): C
- Particle Size (Malvern) D50 (Report result μm) (−20° C., 12 months): 92.2 μm
- Particle Size (Malvern) D90 (Report result μm) (−20° C., 12 months): 201.0 μm
- Particle Size (Malvern) Dl0 (Report result μm) (−20° C., 12 months): 28.7 μm
- Polymorphic form (XRPD) (Consistent with form 2 reference diffractogram) (−20° C., 12 months): C
- Purity by HPLC (NLT 98.0% area) (−20° C., 12 months): 100.0 % area
- Total impurities (NMT 2.0% area) (−20° C., 12 months): 0.00 % area
- Water Content by Kf (Report result % w/w) (−20° C., 12 months): 9.2 % w/w
Compound: O=C1C2=C(CCN(Cc3ccccc3)C2)N2CCN=C2N1Cc1ccc(F)cc1F [ONC206-HCl, 7-benzyl-4-(2,4-difluorobenzyl)-2,4,6,7,8,9-hexahydroimidazo[1,2-a]pyrido[3,4-e]pyrimidin-5(1H)-one]
